Earlier results in patent US7320786B2, “Photodynamic therapy treatment for eye disease” (Light Sciences Oncology, Inc., priority 2000, dated 2008).

Conditions: systemically administered photosensitizer, clinical use

| Molecule | duration of skin photosensitivity |
| --- | --- |
| CCOC(=O)C1=Cc2c3nc(cc4nc(cc5[n-]c(cc6[n-]c2c(C)c6CC)c(C)c5CC)C(C)=C4CC)[C@@H](C)[C@]13CC.[Cl-].[Cl-].[Sn] (racemic) [Purlytin] | several |
| Oc1cccc(-c2c3nc(c(-c4cccc(O)c4)c4ccc([nH]4)c(-c4cccc(O)c4)c4nc(c(-c5cccc(O)c5)c5ccc2[nH]5)CC4)C=C3)c1 [Foscan] | several |
| sodium porfimer [Photophrin] | up to 6 weeks |
